# From US20140031278A1, “Novel Glucagon Analogues” (NOVO NORDISK A/S, priority 2011, published 2014)
# *1 amine or outer side, *2 acyl side, *3 side chain or, on linkers, in order; H or OH if unused. Where a SMILES comes first, the peptide text is derived from it. Side-chain parts run from the residue outwards. γGlu = O=C(O)[C@H](CCC(=O)[*:2])N[*:1]
# Molecular target: T1, glucagon receptor (Homo sapiens, UniProt P47871)
# T1 construct: expressed in transfected cells
# Test: Assay (I) Glucagon activity (cAMP biosensor, FLIPR)
# Type: cell-based
# Settings: HEK-293 cells with cloned glucagon receptor and cAMP biosensor; end point after 6 minutes
# Experimental: The glucagon receptor was cloned into HEK-293 cells having a membrane bound cAMP biosensor (ACTOne™). The cells (14000 per well) were incubated (37° C., 5% CO2) overnight in 384-well plates. Next day the cells were loaded with a calcium responsive dye that only distributed into the cytoplasm. Probenecid, an inhibitor of the organic anion transporter, was added to prevent the dye from leaving the cell. A PDE inhibitor was added to prevent formatted cAMP from being degraded, The plates were placed into a […] and the glucagon analogues were added. End point data were collected after 6 minutes. An increase in intracellular cAMP was proportional to an increased in calcium concentrations in the cytoplasm. When calcium was bound the dry a fluorescence signal was generated. EC50-values were calculated in Prism5.
# T1 sequence (P47871 26-477): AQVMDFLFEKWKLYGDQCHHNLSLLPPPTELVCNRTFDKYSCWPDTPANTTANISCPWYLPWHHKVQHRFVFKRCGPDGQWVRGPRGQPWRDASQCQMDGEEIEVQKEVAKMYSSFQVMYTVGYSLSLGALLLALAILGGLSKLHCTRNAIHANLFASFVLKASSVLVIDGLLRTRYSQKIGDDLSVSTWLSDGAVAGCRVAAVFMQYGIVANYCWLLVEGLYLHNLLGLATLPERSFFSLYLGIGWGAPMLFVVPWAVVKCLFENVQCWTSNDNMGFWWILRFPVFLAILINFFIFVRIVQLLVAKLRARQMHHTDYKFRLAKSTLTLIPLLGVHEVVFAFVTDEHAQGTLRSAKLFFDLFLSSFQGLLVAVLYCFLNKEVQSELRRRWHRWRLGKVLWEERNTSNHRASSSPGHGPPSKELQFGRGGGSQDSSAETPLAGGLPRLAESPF
row,Structure (SMILES),EC50 [nM]
1,"CC(=O)N[C@@H](CCC(=O)N[C@@H](CCC(=O)N[C@@H](CCC(=O)N[C@@H](CCC(=O)NCCCC[C@H](NC(=O)[C@@H](NC(=O)[C@H](Cc1ccccc1)NC(=O)[C@H](CC(=O)O)NC(=O)[C@H](C)NC(=O)[C@H](C)NC(=O)[C@H](CCCNC(=N)N)NC(=O)[C@H](CCCNC(=N)N)NC(=O)[C@@H](NC(=O)[C@H](CC(=O)O)NC(=O)[C@H](CC(C)C)NC(=O)[C@H](Cc1ccc(O)cc1)NC(=O)[C@H](CCCCN)NC(=O)[C@H](CO)NC(=O)[C@H](Cc1ccc(O)cc1)NC(=O)[C@H](CC(=O)O)NC(=O)[C@H](CO)NC(=O)[C@@H](NC(=O)[C@H](Cc1ccccc1)NC(=O)[C@@H](NC(=O)CNC(=O)[C@H](Cc1c[nH]cn1)NC(=O)[C@H](CO)NC(=O)[C@@H](N)Cc1c[nH]cn1)[C@@H](C)O)[C@@H](C)O)C(C)C)C(C)C)C(=O)N[C@@H](Cc1c[nH]c2ccccc12)C(=O)N[C@@H](CC(C)C)C(=O)N[C@@H](CC(C)C)C(=O)N[C@@H](CO)C(=O)N[C@H](C(=O)O)[C@@H](C)O)C(=O)O)C(=O)O)C(=O)O)C(=O)O [Example 10, N^ε24-[(4S)-4-[[(4S)-4-[[(4S)-4-[[(4S)-4-acetamido-4-carboxybutanoyl]amino]-4-carboxybutanoyl]amino]-4-carboxybutanoyl]amino]-4-carboxybutanoyl]-[His3,Val16,Ala20,Lys24,Leu27,Ser28]-Glucagon] (H-HSHGTFTSDYSKYLDVRRAADFVK([γGlu-γGlu-γGlu-γGlu-Ac])WLLST-OH)",0.0167
2,CC[C@H](C)[C@H](NC(=O)[C@H](CC(=O)O)NC(=O)[C@H](CC(C)C)NC(=O)[C@H](Cc1ccc(O)cc1)NC(=O)[C@H](CCCCN)NC(=O)[C@H](CO)NC(=O)[C@H](Cc1ccc(O)cc1)NC(=O)[C@H](CC(=O)O)NC(=O)[C@H](CO)NC(=O)[C@@H](NC(=O)[C@H](Cc1ccccc1)NC(=O)[C@@H](NC(=O)CNC(=O)[C@H](Cc1c[nH]cn1)NC(=O)[C@H](CO)NC(=O)[C@@H](N)Cc1c[nH]cn1)[C@@H](C)O)[C@@H](C)O)C(=O)N[C@@H](CCCNC(=N)N)C(=O)N[C@@H](CCCNC(=N)N)C(=O)N[C@@H](C)C(=O)N[C@@H](C)C(=O)N[C@@H](CC(=O)O)C(=O)N[C@@H](Cc1ccccc1)C(=O)N[C@H](C(=O)N[C@@H](CCCCNC(=O)CC[C@H](NC(=O)CC[C@H](NC(=O)CC[C@H](NC(=O)CC[C@H](NC(C)=O)C(=O)O)C(=O)O)C(=O)O)C(=O)O)C(=O)N[C@@H](Cc1c[nH]c2ccccc12)C(=O)N[C@@H](CC(C)C)C(=O)N[C@@H](CC(C)C)C(=O)N[C@@H](CO)C(=O)N[C@H](C(=O)O)[C@@H](C)O)C(C)C [Example 11] (H-HSHGTFTSDYSKYLDIRRAADFVK([γGlu-γGlu-γGlu-γGlu-Ac])WLLST-OH),0.0124
3,"CC(=O)N[C@@H](CCC(=O)N[C@@H](CCC(=O)N[C@@H](CCC(=O)N[C@@H](CCC(=O)NCCCC[C@H](NC(=O)[C@@H](NC(=O)[C@H](Cc1ccccc1)NC(=O)[C@H](CC(=O)O)NC(=O)[C@H](C)NC(=O)[C@H](C)NC(=O)[C@H](CCCNC(=N)N)NC(=O)[C@H](CCCNC(=N)N)NC(=O)[C@H](Cc1ccccc1)NC(=O)[C@H](CC(=O)O)NC(=O)[C@H](CC(C)C)NC(=O)[C@H](Cc1ccc(O)cc1)NC(=O)[C@H](CCCCN)NC(=O)[C@H](CO)NC(=O)[C@H](Cc1ccc(O)cc1)NC(=O)[C@H](CC(=O)O)NC(=O)[C@H](CO)NC(=O)[C@@H](NC(=O)[C@H](Cc1ccccc1)NC(=O)[C@@H](NC(=O)CNC(=O)[C@H](Cc1c[nH]cn1)NC(=O)[C@H](CO)NC(=O)[C@@H](N)Cc1c[nH]cn1)[C@@H](C)O)[C@@H](C)O)C(C)C)C(=O)N[C@@H](Cc1c[nH]c2ccccc12)C(=O)N[C@@H](CC(C)C)C(=O)N[C@@H](CC(C)C)C(=O)N[C@@H](CO)C(=O)N[C@H](C(=O)O)[C@@H](C)O)C(=O)O)C(=O)O)C(=O)O)C(=O)O [Example 12, N^ε24-[(4S)-4-[[(4S)-4-[[(4S)-4-[[(4S)-4-acetamido-4-carboxybutanoyl]amino]-4-carboxybutanoyl]amino]-4-carboxybutanoyl]amino]-4-carboxybutanoyl]-[His3,Phe16,Ala20,Lys24,Leu27,Ser28]-Glucagon] (H-HSHGTFTSDYSKYLDFRRAADFVK([γGlu-γGlu-γGlu-γGlu-Ac])WLLST-OH)",0.0103
4,"CC(=O)N[C@@H](CCC(=O)N[C@@H](CCC(=O)N[C@@H](CCC(=O)N[C@@H](CCC(=O)NCCCC[C@H](NC(=O)[C@@H](NC(=O)[C@H](Cc1ccccc1)NC(=O)[C@H](CC(=O)O)NC(=O)[C@H](CCC(N)=O)NC(=O)[C@H](C)NC(=O)[C@H](CCCNC(=N)N)NC(=O)[C@H](CCCNC(=N)N)NC(=O)[C@@H](NC(=O)[C@H](CC(=O)O)NC(=O)[C@H](CC(C)C)NC(=O)[C@H](Cc1ccc(O)cc1)NC(=O)[C@H](CCCCN)NC(=O)[C@H](CO)NC(=O)[C@H](Cc1ccc(O)cc1)NC(=O)[C@H](CC(=O)O)NC(=O)[C@H](CO)NC(=O)[C@@H](NC(=O)[C@H](Cc1ccccc1)NC(=O)[C@@H](NC(=O)CNC(=O)[C@H](CCC(N)=O)NC(=O)[C@H](CO)NC(=O)[C@@H](N)Cc1c[nH]cn1)[C@@H](C)O)[C@@H](C)O)C(C)C)C(C)C)C(=O)N[C@@H](Cc1c[nH]c2ccccc12)C(=O)N[C@@H](CC(C)C)C(=O)N[C@@H](CC(C)C)C(=O)N[C@@H](CC(N)=O)C(=O)N[C@H](C(=O)O)[C@@H](C)O)C(=O)O)C(=O)O)C(=O)O)C(=O)O [Example 16, N^ε24-[(4S)-4-[[(4S)-4-[[(4S)-4-[[(4S)-4-acetamido-4-carboxybutanoyl]amino]-4-carboxybutanoyl]amino]-4-carboxybutanoyl]amino]-4-carboxybutanoyl]-[Val16,Lys24,Leu27]-Glucagon]",0.0065
5,"CC(=O)N[C@@H](CCC(=O)N[C@@H](CCC(=O)N[C@@H](CCC(=O)N[C@@H](CCC(=O)NCCCC[C@H](NC(=O)[C@@H](NC(=O)[C@H](Cc1ccccc1)NC(=O)[C@H](CC(=O)O)NC(=O)[C@H](CCC(N)=O)NC(=O)[C@H](C)NC(=O)[C@H](CCCNC(=N)N)NC(=O)[C@H](CCCNC(=N)N)NC(=O)[C@H](CO)NC(=O)[C@H](CCC(=O)O)NC(=O)[C@H](CC(C)C)NC(=O)[C@H](Cc1ccc(O)cc1)NC(=O)[C@H](CCCCN)NC(=O)[C@H](CO)NC(=O)[C@H](Cc1ccc(O)cc1)NC(=O)[C@H](CC(=O)O)NC(=O)[C@H](CO)NC(=O)[C@@H](NC(=O)[C@H](Cc1ccccc1)NC(=O)[C@@H](NC(=O)CNC(=O)[C@H](CCC(N)=O)NC(=O)[C@H](CO)NC(=O)[C@@H](N)Cc1c[nH]cn1)[C@@H](C)O)[C@@H](C)O)C(C)C)C(=O)N[C@@H](Cc1c[nH]c2ccccc12)C(=O)N[C@@H](CC(C)C)C(=O)N[C@@H](CC(C)C)C(=O)N[C@@H](CC(N)=O)C(=O)N[C@H](C(=O)O)[C@@H](C)O)C(=O)O)C(=O)O)C(=O)O)C(=O)O [Example 17, N^ε24-[(4S)-4-[[(4S)-4-[[(4S)-4-[[(4S)-4-acetamido-4-carboxybutanoyl]amino]-4-carboxybutanoyl]amino]-4-carboxybutanoyl]amino]-4-carboxybutanoyl]-[Glu15,Lys24,Leu27]-Glucagon]",0.0165
6,"CC(=O)N[C@@H](CCC(=O)N[C@@H](CCC(=O)N[C@@H](CCC(=O)N[C@@H](CCC(=O)NCCCC[C@H](NC(=O)[C@@H](NC(=O)[C@H](Cc1ccccc1)NC(=O)[C@H](CC(=O)O)NC(=O)[C@H](CCC(N)=O)NC(=O)[C@H](C)NC(=O)[C@H](CCCNC(=N)N)NC(=O)[C@H](CCCNC(=N)N)NC(=O)[C@H](CO)NC(=O)[C@H](CC(=O)O)NC(=O)[C@H](CC(C)C)NC(=O)[C@H](Cc1ccc(O)cc1)NC(=O)[C@H](CCCCN)NC(=O)[C@H](CO)NC(=O)[C@H](Cc1ccc(O)cc1)NC(=O)[C@H](CC(=O)O)NC(=O)[C@H](CO)NC(=O)[C@@H](NC(=O)[C@H](Cc1ccccc1)NC(=O)[C@@H](NC(=O)CNC(=O)[C@H](Cc1c[nH]cn1)NC(=O)[C@H](CO)NC(=O)[C@@H](N)Cc1c[nH]cn1)[C@@H](C)O)[C@@H](C)O)C(C)C)C(=O)N[C@@H](Cc1c[nH]c2ccccc12)C(=O)N[C@@H](CC(C)C)C(=O)N[C@@H](CC(C)C)C(=O)N[C@@H](CC(N)=O)C(=O)N[C@H](C(=O)O)[C@@H](C)O)C(=O)O)C(=O)O)C(=O)O)C(=O)O [Example 19, N^ε24-[(4S)-4-[[(4S)-4-[[(4S)-4-[[(4S)-4-acetamido-4-carboxybutanoyl]amino]-4-carboxybutanoyl]amino]-4-carboxybutanoyl]amino]-4-carboxybutanoyl]-[His3,Lys24,Leu27]-Glucagon]",0.0145
7,"CC(=O)N[C@@H](CCC(=O)N[C@@H](CCC(=O)N[C@@H](CCC(=O)N[C@@H](CCC(=O)NCCCC[C@H](NC(=O)[C@@H](NC(=O)[C@H](Cc1ccccc1)NC(=O)[C@H](CCC(=O)O)NC(=O)[C@H](CCC(N)=O)NC(=O)[C@H](C)NC(=O)[C@H](CCCNC(=N)N)NC(=O)[C@H](CCCNC(=N)N)NC(=O)[C@H](CO)NC(=O)[C@H](CCC(=O)O)NC(=O)[C@H](CC(C)C)NC(=O)[C@H](Cc1ccc(O)cc1)NC(=O)[C@H](CCCCN)NC(=O)[C@H](CO)NC(=O)[C@H](Cc1ccc(O)cc1)NC(=O)[C@H](CC(=O)O)NC(=O)[C@H](CO)NC(=O)[C@@H](NC(=O)[C@H](Cc1ccccc1)NC(=O)[C@@H](NC(=O)CNC(=O)[C@H](CCC(N)=O)NC(=O)[C@H](CO)NC(=O)[C@@H](N)Cc1c[nH]cn1)[C@@H](C)O)[C@@H](C)O)C(C)C)C(=O)N[C@@H](Cc1c[nH]c2ccccc12)C(=O)N[C@@H](CC(C)C)C(=O)N[C@@H](CC(C)C)C(=O)N[C@@H](CO)C(=O)N[C@H](C(=O)O)[C@@H](C)O)C(=O)O)C(=O)O)C(=O)O)C(=O)O [Example 22, N^ε24-[(4S)-4-[[(4S)-4-[[(4S)-4-[[(4S)-4-acetamido-4-carboxybutanoyl]amino]-4-carboxybutanoyl]amino]-4-carboxybutanoyl]amino]-4-carboxybutanoyl]-[Glu15,Glu21,Lys24,Leu27,Ser28]-Glucagon] (H-HSQGTFTSDYSKYLESRRAQEFVK([γGlu-γGlu-γGlu-γGlu-Ac])WLLST-OH)",0.0055
